The experiment has as its target wild type (WT) A/M2 protein (Influenza A virus, UniProt P0DOF5). Description: cell-based.

The structures appear in SMILES notation.

Chain of wild type (WT) A/M2 protein (P0DOF5 whole entry, looked up): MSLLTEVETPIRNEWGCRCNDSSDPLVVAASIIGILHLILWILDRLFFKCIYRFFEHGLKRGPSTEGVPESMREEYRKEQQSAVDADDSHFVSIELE

With `CCCCNC(C)C12CC3CC(CC(C3)C1)C2` (centres unmarked) [Compound 5a, (1-Adamantan-1-yl-ethyl)-butyl-amine], the “M2 WT inhibitory activity relative to that of 4c” value (100 µM, 5a versus rimantadine dimer 4c) is recorded as “approximately fourfold”. For the setting “read-out: percentage inhibition of A/M2 current (WT)”, the inhibition at 100 µM is 40%.
